# What was measured:
# U87 glioblastoma cells = experiment: Acid-induced calcium flux in U87 cells; assay type: cell-based, human; settings: medium shifted from pH 7.8 to 6.4
# Source text: GPR68 is known to signal through Gq which results in a calcium flux out of the Endoplasmic reticulum. U87 glioblastoma cells were stained, using a calcium-sensitive vital dye Fluo-8, and stimulated with acidification of the media to pH6.4. The cells respond to the acidification with a burst of calcium release, this is inhibited by OGM2.
# To determine if GBM cells respond to their own acidic extracellular milieu as a form of autocrine signaling, calcium release in response to acidification was measured. GPR68 is known to couple to the Gq subunit, which acts to release calcium from the ER in a PLC dependent pathway. The medium was shifted from pH 7.8 to 6.4, which triggered a rapid and robust calcium flux, as measured by the fluorescence intensity of calcium-sensitive dye Cal520-AM. This calcium flux was blocked by OGM2 and PLC inhibitor U73122. FIG. 50A, FIG. 50B, FIG. 50C and FIG. 50D.
# MeWo = experiment: Scratch assay; assay type: cell-based, human; settings: 20 hours, OGM2 5 uM
# Experimental: (§1) Since there are numerous parallels are found between neural crest cells and cancer during migration, we examined whether OGM could inhibit the migration of cells in human melanoma cell lines (Oppitz et al., 2007; Schriek et al., 2005, Sinnberg et al., 2018). […] A2058. MeWo and WM115 cells were grown to confluence and a stripe of cells were denuded with a p200 pipette tip “scratch” and rinsed with PBS. Cells were treated with OGM or DMSO and incubated in low serum media. Imaging was done at 30 minutes after “scratch” and then 20 hours afterwards. Areas were then measured and normalized to the initial area.
# WM115 = experiment: Scratch assay; assay type: cell-based, human; settings: 20 hours, OGM2 5 uM
# Experimental: as §1
# A2058 = experiment: Scratch assay; assay type: cell-based, human; settings: 20 hours, OGM2 5 uM
# U87 spheroids = experiment: GBM spheroid assay; assay type: cell-based, human
# Experimental: One thousand cells per well were plated in an ultra-low attachment, round-bottomed, 96-well plate, and spheroids were allowed to form for 3 days. Wells were then exposed to concentrations of vehicle, OGM2 or TMZ or a combination for 3 days. Spheroids were imaged in brightfield at 10× using z-stacks that were collapsed into z-projections in the Gen5 software using the LionheartFx (BioTek™). Automated measurements of the spheroid area were obtained using Gen5 software.
# Tumor spheroid cultures are a more physiological model of tumor growth than typical 2D cell culture. Temozolomide sensitive U87 (FIG. 20A) and Temozolomide insensitive U138 (FIG. 20B) glioblastoma cell lines were plated in low attachment round bottom 96-well plates and allowed to form tumor spheroids for 3 days (T0). At T0, spheroids were imaged using Lionheart™ (HCS) High-Content Imaging Systems (Biotek™) and then were exposed to increasing doses of either Temozolomide or OGM2. After 5 days of treatment the spheroids were imaged again (T5). The size (area) of the spheroids after 5 days of treatment was quantified, and the average size of the spheroids at TO is depicted in red.
# A GPR68-positive allosteric modulator, Ogerin, was tested. U87glioblastoma cells were plated in low attachment round bottom 96-well plates and allowed to form tumor spheroids for 3 days (TO). These spheroids were treated with Vehicle (DMSO), 10 μM/20 μM Ogerin or 10 μM/20 μM Ogremorphin-2 (OGM2). The spheroids were placed in the Lionheart™ HCS equipped with environmental control (5% CO2 at 37° C.) and imaged every 12 hours.
# Spheroids were formed over 3 days using low attachment 96-well round bottom plates and then treated with DMSO or OGM2 in either pH 8 buffered media or pH 6.2 buffered media and grown for 3 days. The size (area) of spheroids was measured in relative area units. […] This increase in growth was abrogated by OGM2.
# endothelial cell (EC) = experiment: Acidification-induced endothelial cell dysfunction; assay type: cell-based; settings: OGM2 3 uM; Ogerin 2 uM
# Experimental: FIG. 34A through FIG. 34C: GPR68 plays a central role in acidification-induced endothelial cell (EC) dysfunction in vitro, and OGM2 abrogates EC dysfunction. […] These effects were abolished by OGM2 (OGM) at 3 uM and augmented by GPR68 positive allosteric modulator Ogerin (Og) at 2 uM. *P<0.05; Mann-Whitney test, n=5. FIG. 34C: Medium acidification reduced transendothelial resistance (TER), indicative of disruption of EC barrier function.
# HEK293 = assay type: cell-based; settings: human
# Source text: FIG. 59A through FIG. 59D: OGM2 causes specific cell death in glioblastoma cells.
# Thus, in contrast to erastin, OGM2 induces ferroptosis selectively in cancer cells.
structure (smiles),measurement,setting,value
COc1ccc2c(c1)CC[C@@H]1[C@@H]2CC[C@]2(C)[C@@H](NCCCCCCN3C(=O)C=CC3=O)CC[C@@H]12 [Compound U73122],acid-induced calcium flux,U87 glioblastoma cells,blocked
"CCN(c1nc(N)c(C(=O)NC(=N)N)nc1Cl)C(C)C [EIPA, reference compound]",migration,MeWo,not
same,migration,WM115,inhibited migration
same,migration,A2058,inhibited migration
"CCc1nn2c(C)cc(C)nc2c1Cc1ccc(-c2nnc(C3CCNCC3)o2)cc1 [NE52QQ, reference compound]",acid-induced calcium flux,U87 glioblastoma cells,not significant
"Nc1nc(NCc2ccccc2)nc(-c2ccccc2CO)n1 [Ogerin, reference compound]",spheroid growth rate,U87 spheroids,promoted U87 spheroids growth rate
same,"acidic media (pH 6.5)-induced TNFα, VCAM1 and ICAM1 expression",endothelial cell (EC),augmented
"CCOc1ccccc1-n1c(C(C)N2CCN(C(=O)COc3ccc(Cl)cc3)CC2)nc2ccccc2c1=O (centres unmarked) [erastin, reference compound]",HEK293 cell viability / survival,HEK293,dramatically reduced HEK293 cell survival

# Reference: patent publication US20240327364A1, “THERAPEUTIC TARGETING OF GPR68 TO INDUCE FERROPTOSIS” (University Of Maryland, Baltimore, priority 2023, published 2024)
